# In patent US9029110B2, “Method for producing functional microbially fermented tea extract containing polyphenol derivative” (Kabushiki Kaisha Riverson, priority 2009, dated 2015):
# Key:
# PTP1B = PTP1B expression inhibitory effect, Western blotting; format: cell-based
# Description: (§1) 3T3-L1 adipocytes can be allowed to grow and maintained in a 5% CO2 environment in high-glucose DMEM containing 50 U/ml penicillin, 50 μg/ml streptomycin, and 10% FCS. The 3T3-L1 cells were subcultured in a dish of 3.5 cm in diameter until confluent and then sufficiently differentiated into adipocytes by culture for another 2 days in the presence of insulin (10 μg/ml), dexamethasone (0.25 μM), and IBMX (3-isobutyl-1-methylxanthine) (0.5 mM). Teadenol A (10 μM) or DMSO (vehicle control) was added to the sufficiently differentiated 3T3-L1 adipocytes, and each culture supernatant was collected after 8, 24, 32, and 48 hours. The amount of adiponectin secreted was determined by Western blotting method.
# Teadenol A (10 μM) or DMSO (vehicle control) was added to the sufficiently differentiated 3T3-L1 adipocytes. After culture for 8, 24, 32, and 48 hours, the cells were collected, and the amount of PTP1B […] and the amount of α-tubulin were determined by Western blotting method.
# 3T3-L1 adipocytes = assay: Adiponectin secretion promoting effect, Western blotting of culture supernatant; format: cell-based; details: for amount of adiponectin secreted (Mean, DMSO control = 100.00): differentiated 3T3-L1 adipocytes, 3 runs
# Description: as §1
# [1] = Test of the functions of decreasing visceral fat and increasing adiponectin (method not described); details: as a result of the test, no data shown
# [2] = stated as 'can be confirmed', no data shown
Compound,"PTP1B expression inhibitory activity (PTP1B; statistically significant difference in the samples after 32 hours, 10 μM, 3T3-L1 adipocytes)","amount of adiponectin secreted (Mean, DMSO control = 100.00) (3T3-L1 adipocytes; 10 μM, 8 h)","amount of adiponectin secreted (Mean, DMSO control = 100.00) (3T3-L1 adipocytes; 10 μM, 24 h)","amount of adiponectin secreted (Mean, DMSO control = 100.00) (3T3-L1 adipocytes; 10 μM, 32 h)","amount of adiponectin secreted (Mean, DMSO control = 100.00) (3T3-L1 adipocytes; 10 μM, 48 h)","adiponectin secretion promoting activity (3T3-L1 adipocytes; statistically significant difference in the samples after 24 and 48 hours, 10 μM)",function on adiponectin [1],function on visceral fat [1],PTP1B expression inhibitory effect (PTP1B; [2]),adiponectin secretion promoting effect (3T3-L1 adipocytes; [2])
"C=C1C=C(C(=O)O)O[C@@H]2Cc3c(O)cc(O)cc3O[C@H]12 [Teadenol A, teadenol A]",effective,166.00,214.67,153.33,147.67,effective,increasing adiponectin,decreasing visceral fat,,
"C=C1C=C(C(=O)O)O[C@@H]2Cc3c(O)cc(O)cc3O[C@@H]12 [Teadenol B, teadenol B]",,,,,,,,,effective,effective
